From patent publication US20170037028A1 (BAYER PHARMA AKTIENGESELLSCHAFT, priority 2013, published 2017)

These molecules were tested against T1, GLUT1 (Homo sapiens, UniProt P11166) (assay: Indirect measurement of GLUT1 activity by quantification of intracellular ATP levels (glucose induced ATP increase)). Conditions: read-out: IC50 regarding glucose induced ATP increase (GLUT1 inhibition).
T1 sequence (P11166 1-492): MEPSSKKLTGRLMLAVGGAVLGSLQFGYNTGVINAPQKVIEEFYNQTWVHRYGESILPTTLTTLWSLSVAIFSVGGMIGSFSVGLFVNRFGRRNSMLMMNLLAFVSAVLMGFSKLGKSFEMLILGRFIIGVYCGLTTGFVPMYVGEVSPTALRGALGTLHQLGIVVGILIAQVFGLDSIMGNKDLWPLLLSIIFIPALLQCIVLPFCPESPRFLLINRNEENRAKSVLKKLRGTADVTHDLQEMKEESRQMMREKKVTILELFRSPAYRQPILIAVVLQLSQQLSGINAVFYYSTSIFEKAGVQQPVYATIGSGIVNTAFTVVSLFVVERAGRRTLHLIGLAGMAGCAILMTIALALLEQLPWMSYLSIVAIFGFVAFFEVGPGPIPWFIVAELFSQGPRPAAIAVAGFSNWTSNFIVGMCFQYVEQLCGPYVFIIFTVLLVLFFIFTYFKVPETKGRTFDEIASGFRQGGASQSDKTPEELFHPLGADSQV
Format: cell-based
Set-up: endogenous in cells; host or cells: DLD1 or CHO-K1
How it was run: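 DLD1 or CHO-K1 cells were starved overnight in glucose-free medium with 1% FCS, then combined with an oxidative phosphorylation inhibitor. GLUT1 activity was read as glucose-induced ATP increase, GLUT2 as fructose-induced. Intracellular ATP was quantified by CellTiter-Glo luminescence.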

IC50 [nM]	SMILES
438	Cc1nn(Cc2ccc(F)cc2)c(C)c1NC(=O)c1cc(N2CCOCC2)nc2ccccc12 [Example 198, N-[1-(4-fluorobenzyl)-3,5-dimethyl-1H-pyrazol-4-yl]-2-(morpholin-4-yl)quinoline-4-carboxamide]
21	Cc1nn(Cc2ccccc2O)c(C)c1NC(=O)c1cc(C(F)(F)F)nc2c(Cl)cc(Cl)cc12 [Example 1071]
247	Cc1nn(Cc2ccc(C(=O)Nc3cccc(C(N)=O)c3)cc2)c(C)c1NC(=O)c1cc(C(F)(F)F)nc2ccc(Br)cc12 [Example 1185]
53.8	CNC(=O)c1nc(Cn2nc(C(F)(F)F)c(NC(=O)c3cc(C(N)=O)nc4ccccc34)c2C)no1 [Example 1557]
7.6	Cc1c(NC(=O)c2cc(C(N)=O)nc3cccc(F)c23)c(C(F)(F)F)nn1Cc1ccc(OC(F)(F)F)cc1 [Example 1467]
13.3	Cc1nn(Cc2cccc(C#N)c2)c(C)c1NC(=O)c1cc(C(N)=O)nc2cc(F)ccc12 [Example 1454]
4.7	Cc1cc(Cn2nc(C(F)(F)F)c(NC(=O)c3cc(C(N)=O)nc4cc(F)ccc34)c2C)ccc1C#N [Example 1695]
65.5	Cc1nn(Cc2ccc(C(=O)NCCN(CCO)CCO)cc2)c(C)c1NC(=O)c1cc(C(F)(F)F)nc2ccc(Br)cc12 [Example 1121]
323	Cc1cc(Cn2nc(C)c(NC(=O)c3cc(C(F)(F)F)nc4ccc(Br)cc34)c2C)no1 [Example 1505]
1.2	Cc1nn(Cc2ccc(C#N)cc2)c(C)c1NC(=O)c1cc(C(N)=O)nc2cccc(F)c12 [Example 262, N^4-[1-(4-cyanobenzyl)-3,5-dimethyl-1H-pyrazol-4-yl]-5-fluoroquinoline-2,4-dicarboxamide]
2.4	Cc1cc2c(C(=O)Nc3c(C)nn(Cc4ccc(C#N)cc4)c3C)cc(C(N)=O)nc2cc1F [Example 256, N^4-[1-(4-cyanobenzyl)-3,5-dimethyl-1H-pyrazol-4-yl]-7-fluoro-6-methylquinoline-2,4-dicarboxamide]
2.7	Cc1nn(Cc2ccc(C(=O)NC3CC3)cc2)c(C)c1NC(=O)c1cc(C(F)(F)F)nc2ccc(Br)cc12 [Example 1024]
593	Cc1ccc2nc(C)cc(C(=O)Nc3c(C)nn(Cc4ccc(C(F)(F)F)cc4)c3C)c2c1 [Example 107, N-{3,5-dimethyl-1-[4-(trifluoromethyl)benzyl]-1H-pyrazol-4-yl}-2,6-dimethylquinoline-4-carboxamide]
1.3	Cc1nn(C(C)c2ccc(C#N)cc2)c(C)c1NC(=O)c1cc(C(N)=O)nc2cc(F)c(Cl)cc12 (racemic) [Example 330, (±)-6-chloro-N^4-{1-[1-(4-cyanophenyl)ethyl]-3,5-dimethyl-1H-pyrazol-4-yl}-7-fluoroquinoline-2,4-dicarboxamide]
3.6	Cc1nn(Cc2ccc(C#N)cn2)c(C)c1NC(=O)c1cc(C(N)=O)nc2cc(F)c(F)cc12 [Example 354, N^4-{1-[(5-cyanopyridin-2-yl)methyl]-3,5-dimethyl-1H-pyrazol-4-yl}-6,7-difluoroquinoline-2,4-dicarboxamide]
67.5	Cc1nn(Cc2ccn(C)n2)c(C)c1NC(=O)c1cc(C(N)=O)nc2ccccc12 [Example 1569]
3.6	Cc1c(NC(=O)c2cc(C(N)=O)nc3ccc(Br)cc23)c(C(F)(F)F)nn1Cc1ccc(C#N)cc1 [Example 250]
58.3	Cc1ccc(Cn2nc(C)c(NC(=O)c3cc(C(F)(F)F)nc4ccc(Br)cc34)c2C)cc1 [Example 54, 6-bromo-N-[3,5-dimethyl-1-(4-methylbenzyl)-1H-pyrazol-4-yl]-2-(trifluoromethyl)quinoline-4-carboxamide]
266	Cc1c(NC(=O)c2cc(C(N)=O)nc3cc(F)ccc23)c(C(F)(F)F)nn1Cc1cc(F)ccc1C#N [Example 1653]
5.1	CNC(=O)c1c(NC(=O)c2cc(C(F)(F)F)nc3ccc(Br)cc23)c(C)nn1Cc1ccc(F)cc1 [Example 1036]
2020	Cc1nn(Cc2nccn2C)c(C)c1NC(=O)c1cc(C(F)(F)F)nc2ccc(Br)cc12 [Example 1524]
446	Cc1cc(C#N)c2nc(C(F)(F)F)cc(C(=O)Nc3c(C)nn(Cc4ccc(F)cc4)c3C)c2c1 [Example 102, 8-cyano-N-[1-(4-fluorobenzyl)-3,5-dimethyl-1H-pyrazol-4-yl]-6-methyl-2-(trifluoromethyl)quinoline-4-carboxamide]
694	Cc1nn(CCN2CCOCC2)c(C)c1NC(=O)c1cc(C(F)(F)F)nc2ccc(Br)cc12 [Example 1218]

IC50 [nM]	SMILES
110	Cc1c(NC(=O)c2cc(C(N)=O)nc3cc(F)c(Cl)cc23)c(C(F)(F)F)nn1Cc1ccccc1OC(F)(F)F [Example 1704]
437	Cc1nn(Cc2ccc(CC(=O)NCc3cccnc3)cc2)c(C)c1NC(=O)c1cc(C(F)(F)F)nc2ccc(Br)cc12 [Example 157, 6-bromo-N-[3,5-dimethyl-1-(4-{2-oxo-2-[(pyridin-3-ylmethyl)amino]ethyl}benzyl)-1H-pyrazol-4-yl]-2-(trifluoromethyl)quinoline-4-carboxamide]
11.1	Cc1c(NC(=O)c2cc(C(N)=O)nc3cc(F)c(Cl)cc23)c(C(F)(F)F)nn1Cc1cc(C2CC2)on1 [Example 1551]
333	Cc1c(NC(=O)c2cc(C(F)(F)F)nc3ccc(Br)cc23)c(C(F)(F)F)nn1Cc1ccc(F)c(F)c1 [Example 197, 6-bromo-N-[1-(3,4-difluorobenzyl)-5-methyl-3-(trifluoromethyl)-1H-pyrazol-4-yl]-2-(trifluoromethyl)quinoline-4-carboxamide]
3.4	Cc1c(NC(=O)c2cc(C(N)=O)nc3cc(F)c(Cl)cc23)c(C(F)(F)F)nn1Cc1ccc(F)cc1C#N [Example 1657]
3850	Cc1cc(C(=O)Nc2c(C)nn(Cc3ccc(F)cc3)c2C)c2ccc(Br)cc2n1 [Example 1277]
6.6	COc1cc(C(=O)Nc2c(C)nn(Cc3ccc(C#N)cc3)c2C)c2cc(F)ccc2n1 [Example 265, N-[1-(4-cyanobenzyl)-3,5-dimethyl-1H-pyrazol-4-yl]-6-fluoro-2-methoxyquinoline-4-carboxamide]
257	Cc1cc(C(=O)Nc2c(C)nn(Cc3ccc(F)cc3)c2C)c2cccc(C)c2n1 [Example 86, N-[1-(4-fluorobenzyl)-3,5-dimethyl-1H-pyrazol-4-yl]-2,8-dimethylquinoline-4-carboxamide]
1530	CCc1nn(Cc2ccc(F)cc2)c(CC)c1NC(=O)c1cc(C(F)(F)F)nc2ccc(Br)cc12 [Example 1388]
51.3	Cc1c(NC(=O)c2cc(C(N)=O)nc3ccc(NCCN(C)C)cc23)c(C(F)(F)F)nn1Cc1ccc(C#N)cc1 [Example 1434]
32.2	Cc1nn(Cc2ccc(C(=O)N3CC4(CCS4(=O)=O)C3)cc2)c(C)c1NC(=O)c1cc(C(F)(F)F)nc2ccc(Br)cc12 [Example 1087]
7.5	Cc1c(NC(=O)c2cc(C(N)=O)nc3cc(F)ccc23)c(C(F)(F)F)nn1C(C)c1ccccc1 (racemic) [Example 334, (±)-7-fluoro-N^4-[5-methyl-1-(1-phenylethyl)-3-(trifluoromethyl)-1H-pyrazol-4-yl]quinoline-2,4-dicarboxamide]
86.7	COC(=O)c1coc(Cn2nc(C(F)(F)F)c(NC(=O)c3cc(C(N)=O)nc4cc(F)ccc34)c2C)n1 [Example 1681]
557	Cc1ccc2nc(C)cc(C(=O)Nc3c(C)nn(Cc4ccc(C#N)nc4)c3C)c2c1 [Example 201, N-{1-[(6-cyanopyridin-3-yl)methyl]-3,5-dimethyl-1H-pyrazol-4-yl}-2,6-dimethylquinoline-4-carboxamide]
5370	Cc1c(NC(=O)c2cc(C(N)=O)nc3ccc(S(N)(=O)=O)cc23)c(C(F)(F)F)nn1Cc1ccc(C#N)cc1 [Example 1382]
5.5	Cc1c(NC(=O)c2cc(C(N)=O)nc3cc(F)c(Cl)cc23)c(C(F)(F)F)nn1Cc1c(F)cc(C#N)cc1F [Example 398, 6-chloro-N^4-[1-(4-cyano-2,6-difluorobenzyl)-5-methyl-3-(trifluoromethyl)-1H-pyrazol-4-yl]-7-fluoroquinoline-2,4-dicarboxamide]
19.1	Cc1nn(Cc2ccc(C(=O)Nc3cccc(Cl)c3)cc2)c(C)c1NC(=O)c1cc(C(F)(F)F)nc2ccc(Br)cc12 [Example 1066]
319	Cc1nn(Cc2cccc(C(C)O)c2)c(C)c1NC(=O)c1cc(C(N)=O)nc2ccccc12 (racemic) [Example 1645]
288	Cc1c(NC(=O)c2cc(C(N)=O)nc3cc(F)ccc23)c(C(F)(F)F)nn1Cc1cccc(S(C)(=O)=O)c1 [Example 1637]
126	Cc1nn(Cc2ccc(C(=O)NCc3ccccc3F)cc2)c(C)c1NC(=O)c1cc(C(F)(F)F)nc2ccc(Br)cc12 [Example 1149]
5.2	Cc1cccc(Cn2nc(C)c(NC(=O)c3cc(C(N)=O)nc4cc(F)c(Cl)cc34)c2C)c1 [Example 1473]
25.6	Cc1nn(Cc2ccc(F)c(F)c2)c(C)c1NC(=O)c1cc(C(F)(F)F)nc2c(Cl)cc(Cl)cc12 [Example 35, 6,8-dichloro-N-[1-(3,4-difluorobenzyl)-3,5-dimethyl-1H-pyrazol-4-yl]-2-(trifluoromethyl)quinoline-4-carboxamide]
